Test results from US20080234304A1, “N3-Pyridyl-Thiamine And Its Use In Cancer Treatments” (AVEO PHARMACEUTICALS, INC., priority 2004, published 2008).
“Also recorded” adds a separate entry of the source.

Assays:
HCT-116 Luc+ tumors = assay: mouse xenograft model, tumor growth; type: in vivo; details: 200 mg/kg/day, twice daily, ip; Balb C nude mice
Description: A mouse xenograft model was used to evaluate the efficacy of N3PT in modulating tumor growth. Cancer cells (HCT-116 Luc+, comprising a stably transfected luciferase gene) were injected subcutaneously (10^6 cells) into Balb C nude mice on both flanks on day 7 prior to treatment. Tumors were allowed to grow to palpable size from test day 0, defined as the start of a treatment regime. N3PT was injected ip (intraperitoneally) at a given regimen (e.g., 200 mg/kg/day) and tumor size monitored by luminance intensity from day 0-7, caliper measurement after day 7, and by weight at the end of study, after the animals were sacrificed. See, e.g., Wang and El-Deiry, Cancer Biol Ther. 2(2):196-202 (2003); Ray et al., Cancer Res. 63(6):1160-5 (2003); see also, e.g., U.S. Pat. Nos. 6,416,960; 6,596,257; and 6,217,847.

transketolase [1] = assay: transketolase activity in blood and tissues of N3PT-treated mice; type: in vivo, mouse; details: 200 mg/kg/day, relative to vehicle
Description: (§1) […] Blood samples were taken (40 μl whole blood) serially or from sacrificed animals at the end of a study. Tissues, including tumor, brain, heart, kidney, liver, lung, spleen, were taken and flash frozen in liquid nitrogen or on dry ice and stored at −80° C. until assay. Blood was diluted into lysis buffer and dissolved. Tissues were suspended in lysis buffer and homogenized with PowerGen 125 (Fisher Scientific) while being submerged in an ice-water bath.
(§2) Transketolase assays were performed as in Example 2. The lysate was used right away or flash frozen and stored at −80° C. until assay. The protein concentration in the lysate was determined using a Bradford assay (BioRad) with BSA as a standard. The enzymatic velocity was normalized to the total protein concentration for inter-sample comparisons. In order to obtain reliable results across samples, it was important to have similar starting protein concentrations (such as within 30%). This was achieved by weighing the tissue before lysis so that the suspensions contained similar tissue/ml lysis buffer for all samples.

transketolase [2] = target: T1, transketolase (Mus musculus, UniProt P40142); assay: as above; type: in vivo
T1 construct: from tissue; host or cells: whole blood, spleen, brain and other tissues of Balb C nude mice; also xenograft tumours
T1 sequence (P40142 1-623): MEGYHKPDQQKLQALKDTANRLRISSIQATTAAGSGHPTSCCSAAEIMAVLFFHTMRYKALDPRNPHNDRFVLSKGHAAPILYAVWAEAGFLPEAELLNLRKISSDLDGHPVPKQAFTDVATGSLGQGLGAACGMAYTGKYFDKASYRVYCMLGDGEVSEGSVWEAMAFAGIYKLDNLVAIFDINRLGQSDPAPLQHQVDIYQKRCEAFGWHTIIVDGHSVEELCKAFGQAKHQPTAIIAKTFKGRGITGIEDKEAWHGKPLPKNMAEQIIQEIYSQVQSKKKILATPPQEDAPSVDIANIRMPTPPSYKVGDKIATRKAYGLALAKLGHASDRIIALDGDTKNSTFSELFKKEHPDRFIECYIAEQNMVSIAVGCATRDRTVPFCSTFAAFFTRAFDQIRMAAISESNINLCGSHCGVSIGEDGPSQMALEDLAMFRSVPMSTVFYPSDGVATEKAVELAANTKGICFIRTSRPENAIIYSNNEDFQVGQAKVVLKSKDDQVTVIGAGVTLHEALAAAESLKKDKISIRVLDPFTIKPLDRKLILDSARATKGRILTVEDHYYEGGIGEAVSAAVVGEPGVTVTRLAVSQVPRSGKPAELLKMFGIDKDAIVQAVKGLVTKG
Description: as §1, §2

For `Cc1ccc(C[n+]2csc(CCO)c2C)c(N)n1` [N3PT, 3-[(2-amino-6-methyl-3-pyridinyl)methyl]-5-(2-hydroxyethyl)-4-methyl thiazolium], the “growth of explant tumors” value (HCT-116 Luc+ tumors) was “inhibits growth of tumors in vivo; also recorded: inhibited the growth of explant tumors”, the “transketolase activity in tumors” value (transketolase [1]) was “reduced” and the “transketolase activity in whole blood” value (transketolase [2]; 200 mg/kg/day, relative to vehicle) was “reduced; also recorded: selectively inhibited”. For the same compound, the “sensitivity of spleen transketolase to N3PT on low-thiamine diet” value (transketolase [2]; diets with 16.5, 5, 1 or 0 mg/kg thiamine, N3PT ip, 12 hours later) was “enhances the sensitivity to N3PT inhibition of TK in spleen; also recorded: more sensitive to TK inhibition by N3PT”, the “selectivity of transketolase inhibition in vivo versus kGDH and G6PDH” value (transketolase [2]; single dose 100 mg/kg body weight, mouse, 100 mg/kg) was “selective inhibitor of transketolase in vivo; also recorded: selectively inhibits transketolase” and the “duration of transketolase inhibition in vivo” value (transketolase [2]; single dose 100 mg/kg i.p., blood and spleen, 0-120 hr, 100 mg/kg) was “potent and long-lasting transketolase inhibitor in vivo”.
